# Residue numbers refer to the chain shown, from its start.
# Key:
# TRPV2 QM = molecular target: T1, TRPV2 QM (Rattus norvegicus, UniProt Q9WUD2, F472S/L507M/L510T/Q530E); assay: Single channel inside-out patch recording of TRPV2 QM in HEK293 cells; format: cell-based; settings: 100 nM RTx, patch containing a single channel, recording of approximately 8 min
# T1 construct: expressed in transfected cells; host or cells: Xenopus oocytes (cRNA injection)
# T1 sequence (Q9WUD2 1-761 F472S/L507M/L510T/Q530E): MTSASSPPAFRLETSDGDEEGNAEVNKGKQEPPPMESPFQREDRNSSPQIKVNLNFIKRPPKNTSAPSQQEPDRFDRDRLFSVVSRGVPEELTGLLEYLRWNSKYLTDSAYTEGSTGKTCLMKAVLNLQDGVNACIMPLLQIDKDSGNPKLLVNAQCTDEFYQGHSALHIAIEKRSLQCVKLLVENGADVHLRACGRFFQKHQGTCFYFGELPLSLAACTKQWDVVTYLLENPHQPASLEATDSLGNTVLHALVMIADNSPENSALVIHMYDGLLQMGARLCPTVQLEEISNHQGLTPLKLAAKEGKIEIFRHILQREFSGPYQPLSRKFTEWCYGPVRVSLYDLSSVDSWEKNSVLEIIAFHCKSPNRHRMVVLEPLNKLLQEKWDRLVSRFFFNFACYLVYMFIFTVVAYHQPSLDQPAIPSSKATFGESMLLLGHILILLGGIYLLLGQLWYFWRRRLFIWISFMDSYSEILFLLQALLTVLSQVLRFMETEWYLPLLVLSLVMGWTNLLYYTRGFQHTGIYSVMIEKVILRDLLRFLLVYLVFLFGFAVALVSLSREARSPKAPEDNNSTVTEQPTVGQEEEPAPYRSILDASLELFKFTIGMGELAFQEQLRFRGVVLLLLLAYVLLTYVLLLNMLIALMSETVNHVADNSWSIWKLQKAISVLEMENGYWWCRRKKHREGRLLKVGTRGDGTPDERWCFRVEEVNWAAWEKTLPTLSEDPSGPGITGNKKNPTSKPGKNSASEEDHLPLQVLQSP
# 1D4-tagged WT TRPV2 = molecular target: T2, 1D4-tagged WT TRPV2 (Rattus norvegicus, UniProt Q9WUD2); assay: 3H-RTx binding to yeast membranes containing 1D4-tagged WT TRPV2
# T2 construct: made in house; host or cells: S. cerevisiae BJ5457, isolated membranes
# T2 sequence (Q9WUD2 1-761): T1 sequence (Q9WUD2 1-761 F472S/L507M/L510T/Q530E) with S472F, M507L, T510L, E530Q
# Excerpt: To examine the strength of RTx binding to the TRPV2 channel, we undertook binding assays after expressing 1D4-tagged TRPV2 and TRPV2 QM in S. cerevisiae and isolating yeast membranes, similar to the experiments described above with TRPV1 (Figure 2). […] To examine the relative importance of the four residues for mediating RTx sensitivity in the TRPV2 QM, we constructed triple mutants and evaluated their sensitivity to RTx electrophysiologically.
# The full-length TRPV1 and TRPV2 channels with 1D4 affinity tags ([…]) on their C-termini were cloned into the YEpHIS vector and expressed in the BJ5457 strain of S. cerevisiae using the strong constitutively active PMA1 promoter, as previously described ([Moiseenkova-Bell et al., 2008]). After 48 hr of expression at 30°C in YPD media, cells were harvested by centrifugation and re-suspended in PBS buffer, supplemented with complete protease inhibitor cocktail (Roche, Indianapolis, IN) and 4-amidinophenylmethanesulfonyl fluoride hydrochloride (APMSF) (Sigma-Aldrich, St. Louis, MO). Cells were broken by passing through an Avestin homogenizer at the pressure of 35 kpsi, cell lysate was cleared by centrifugation at 8,000 g for 15 min and membranes were isolated by ultracentrifugation at 190,000 g for 1 hr. […]
# S. cerevisiae cells overexpressing TRPV1 constructs to be used in ligand binding assays on intact cells (Figure 1E,F) were grown as for small scale expression trials. 24 hr after protein induction cells were spun down at 4000g, the supernatant was removed and the pellet resuspended in 1x PBS, normalizing OD600 to 75 for each sample, and aliquoted for storage at -80°C. ^3H-RTx binding assays on cells were performed at 37°C as previously described ([Feng et al., 2015]), but where non-specific binding of RTx was measured using cells expressing GFP alone. […] Data for binding of RTx to membranes was corrected for non-specific binding, determined using either excess non-radioactive ligand or heat inactivation of the protein, as previously described ([Feng et al., 2015]). […]
smiles,measurement,setting,value
"C=C(C)[C@]12C[C@@H](C)[C@@]34O[C@](Cc5ccccc5)(O[C@@H]1[C@@H]3C=C(COC(=O)Cc1ccc(O)c(OC)c1)C[C@]1(O)C(=O)C(C)=C[C@@H]41)O2 [RTx, resiniferatoxin]",open probability (Po),TRPV2 QM,~1
same,RTx binding in words,1D4-tagged WT TRPV2,weak binding
same,Hill slope (nH),1D4-tagged WT TRPV2; 37°C,0.9
same,Kd,"1D4-tagged WT TRPV2; 37°C, read-out: Kd of 3H-RTx binding (Hill fit)",> 200 nM
